Data set [1] deals with T1, Platelet-derived growth factor receptor alpha (Homo sapiens, UniProt P16234). Description: Inhibition of PDGFRalpha (unknown origin) using FAM-labeled peptide as substrate preincubated for 10 mins followed by substrate addition in presence of ATP by mobility shift assay.
Data set [2] is described as follows: Antiproliferative activity against mouse BAF3 cells assessed as cell growth inhibition after 72 hrs by cell titer-glo assay. Type of data set: cell-based.
Data set [3] can be described thus: Antiproliferative activity against CHL cells assessed as cell growth inhibition after 72 hrs by cell titer-glo assay. Type of data set: cell-based, Cricetulus griseus. As to conditions: chinese hamster.
The nature of data set [4]: Antiproliferative activity against CHO cells assessed as cell growth inhibition after 72 hrs by cell titer-glo assay. Particulars: chinese hamster. Type of data set: cell-based, Cricetulus griseus.
The subject of data set [5] is GISTT1. In words: Antiproliferative activity against human GISTT1 cells assessed as cell growth inhibition after 72 hrs by cell titer-glo assay. In kind it is functional. As to conditions: GISTT1, 72 h.
For data set [6], the target named is Vascular endothelial growth factor receptor 1 (Homo sapiens, UniProt P17948). In words: Inhibition of human GST-tagged FLT1 (781 to 1338 residues) expressed in baculovirus by ELISA.
In data set [7] the target is Vascular endothelial growth factor receptor 3 (Homo sapiens, UniProt P35916). Description: Inhibition of human GST-tagged FLT4 (800 to 1297 residues) expressed in baculovirus by ELISA.
Chain of Vascular endothelial growth factor receptor 3 (P35916 whole entry, the tested form may be a part): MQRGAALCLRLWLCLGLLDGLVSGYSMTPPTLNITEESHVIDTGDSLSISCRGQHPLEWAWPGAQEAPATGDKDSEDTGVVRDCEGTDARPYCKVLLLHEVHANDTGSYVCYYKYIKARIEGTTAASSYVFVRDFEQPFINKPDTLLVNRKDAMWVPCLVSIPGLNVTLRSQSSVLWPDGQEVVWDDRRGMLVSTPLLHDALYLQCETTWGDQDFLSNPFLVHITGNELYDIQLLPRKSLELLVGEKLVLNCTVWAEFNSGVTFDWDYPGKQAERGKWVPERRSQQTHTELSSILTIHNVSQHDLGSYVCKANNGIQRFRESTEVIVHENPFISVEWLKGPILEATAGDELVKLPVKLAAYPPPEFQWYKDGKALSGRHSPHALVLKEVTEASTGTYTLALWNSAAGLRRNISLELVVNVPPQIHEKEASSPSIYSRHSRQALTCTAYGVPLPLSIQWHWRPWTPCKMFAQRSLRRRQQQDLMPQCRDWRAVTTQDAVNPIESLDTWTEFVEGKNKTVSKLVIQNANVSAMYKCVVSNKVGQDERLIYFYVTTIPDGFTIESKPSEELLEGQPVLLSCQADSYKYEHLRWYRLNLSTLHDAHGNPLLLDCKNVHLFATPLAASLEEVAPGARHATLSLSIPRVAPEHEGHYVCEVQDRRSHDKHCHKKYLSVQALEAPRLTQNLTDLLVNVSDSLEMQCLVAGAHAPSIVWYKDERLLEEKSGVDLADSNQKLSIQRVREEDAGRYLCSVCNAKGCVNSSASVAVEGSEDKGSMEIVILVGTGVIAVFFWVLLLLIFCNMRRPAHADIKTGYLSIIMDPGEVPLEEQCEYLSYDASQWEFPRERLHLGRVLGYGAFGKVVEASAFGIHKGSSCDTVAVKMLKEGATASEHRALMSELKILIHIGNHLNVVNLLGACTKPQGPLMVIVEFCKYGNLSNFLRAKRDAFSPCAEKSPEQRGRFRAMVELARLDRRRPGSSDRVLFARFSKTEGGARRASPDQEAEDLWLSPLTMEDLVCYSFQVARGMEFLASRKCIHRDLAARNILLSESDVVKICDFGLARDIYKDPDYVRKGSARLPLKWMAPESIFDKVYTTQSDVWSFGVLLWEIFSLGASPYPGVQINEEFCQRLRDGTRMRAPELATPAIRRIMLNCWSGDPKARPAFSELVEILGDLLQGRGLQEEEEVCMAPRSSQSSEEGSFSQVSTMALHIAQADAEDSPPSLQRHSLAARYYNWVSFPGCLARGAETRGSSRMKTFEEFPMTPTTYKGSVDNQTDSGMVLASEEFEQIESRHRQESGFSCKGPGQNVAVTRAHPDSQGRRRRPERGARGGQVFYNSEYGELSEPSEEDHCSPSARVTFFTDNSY
Data set [8] can be described thus: AUC (0 to t) in Sprague-Dawley rat at 25 mg/kg, ip up to 24 hrs post dose by LC/MS/MS analysis. In kind it is ADME, organism-based. Set-up: dose 25 mg/kg, time < 24 hr, route intraperitoneal. As to conditions: in vivo.
A short description of data set [9]: Tmax in Sprague-Dawley rat at 2 mg/kg, iv up to 24 hrs post dose by LC/MS/MS analysis. In kind it is ADME, organism-based. As to conditions: in vivo.
Data set [10] can be described thus: Tmax in Sprague-Dawley rat at 25 mg/kg, ip up to 24 hrs post dose by LC/MS/MS analysis. Type of data set: ADME, organism-based. Particulars: in vivo.
A short description of data set [11]: AUC (0 to infinity) in Sprague-Dawley rat at 100 mg/kg, ip up to 24 hrs post dose by LC/MS/MS analysis. In kind it is ADME, organism-based. Set-up: dose 100 mg/kg, time infinity, route intraperitoneal. As to conditions: in vivo.
A short description of data set [12]: Cmax in Sprague-Dawley rat at 100 mg/kg, ip up to 24 hrs post dose by LC/MS/MS analysis. In kind it is ADME, organism-based. The arrangement: dose 100 mg/kg, route intraperitoneal. As to conditions: in vivo.
Data set [13] deals with Tyrosine-protein kinase ABL2 (Homo sapiens) (UniProt P42684). In words: Inhibition of human wild type ABL2 (248 to 542 residues) expressed in bacterial expression system assessed as activity remaining at 1 uM by KINOMEscan assay relative to control.
Chain of Tyrosine-protein kinase ABL2 (Homo sapiens) (P42684 whole entry, the tested form may be a part): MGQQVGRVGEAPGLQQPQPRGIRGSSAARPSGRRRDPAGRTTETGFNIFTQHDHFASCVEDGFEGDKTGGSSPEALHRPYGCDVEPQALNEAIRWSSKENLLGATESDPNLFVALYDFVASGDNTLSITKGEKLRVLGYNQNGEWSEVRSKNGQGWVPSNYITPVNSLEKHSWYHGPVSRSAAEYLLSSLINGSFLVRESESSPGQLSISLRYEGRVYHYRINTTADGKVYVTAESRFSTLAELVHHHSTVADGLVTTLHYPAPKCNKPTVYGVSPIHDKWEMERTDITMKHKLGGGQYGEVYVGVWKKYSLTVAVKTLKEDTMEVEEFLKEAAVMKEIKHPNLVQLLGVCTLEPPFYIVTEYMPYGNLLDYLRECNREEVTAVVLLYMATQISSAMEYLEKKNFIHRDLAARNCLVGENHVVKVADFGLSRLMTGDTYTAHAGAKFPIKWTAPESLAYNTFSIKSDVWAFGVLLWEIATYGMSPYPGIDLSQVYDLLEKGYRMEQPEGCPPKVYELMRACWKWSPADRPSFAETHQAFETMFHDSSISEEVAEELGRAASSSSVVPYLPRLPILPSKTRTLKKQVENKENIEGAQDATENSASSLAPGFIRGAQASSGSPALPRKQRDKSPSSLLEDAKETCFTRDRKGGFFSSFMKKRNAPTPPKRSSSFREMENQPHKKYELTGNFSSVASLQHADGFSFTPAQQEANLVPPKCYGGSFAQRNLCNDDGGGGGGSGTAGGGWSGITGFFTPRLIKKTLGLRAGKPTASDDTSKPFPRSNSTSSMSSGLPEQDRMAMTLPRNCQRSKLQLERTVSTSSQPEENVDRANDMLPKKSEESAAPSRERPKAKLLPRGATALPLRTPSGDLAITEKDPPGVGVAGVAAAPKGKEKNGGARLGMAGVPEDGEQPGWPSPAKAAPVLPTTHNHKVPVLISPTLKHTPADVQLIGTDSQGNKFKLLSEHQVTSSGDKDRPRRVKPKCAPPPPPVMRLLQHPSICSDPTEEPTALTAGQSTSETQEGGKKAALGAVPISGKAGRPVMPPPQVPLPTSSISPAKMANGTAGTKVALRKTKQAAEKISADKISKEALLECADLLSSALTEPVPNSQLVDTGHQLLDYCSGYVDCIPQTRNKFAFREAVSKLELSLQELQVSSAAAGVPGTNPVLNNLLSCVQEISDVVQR
Data set [14] concerns GISTT1. Description: Antitumor activity against human GISTT1 cells xenografted in nu/nu mouse assessed as tumor growth inhibition at 100 mg/kg, ip administered daily for 28 days relative to control. In kind it is functional. Particulars: 672 h, read-out: TGI.
Data set [15] has as its system GISTT1. Description: Antitumor activity against human GISTT1 cells xenografted in nu/nu mouse assessed as tumor growth inhibition at 25 mg/kg, ip administered daily for 28 days relative to control. As to conditions: 672 h, read-out: TGI. Type of data set: functional.
For data set [16], the system named is Mus musculus. Description: Toxicity in nu/nu mouse xenografted with human GISTT1 cells assessed as mortality at 25 to 100 mg/kg, ip administered daily for 28 days measured during compound dosing. As to conditions: in vivo, 672 h. In kind it is organism-based.
For data set [17], the system named is Mus musculus. Description: Toxicity in nu/nu mouse xenografted with human GISTT1 cells assessed as body weight loss at 25 to 100 mg/kg, ip administered daily for 28 days measured during compound dosing. Type of data set: organism-based. As to conditions: in vivo, 672 h.
The next data set concerns BaF3. Description: Antitumor activity against mouse BAF3 cells harboring TEL-cKIT-T670I mutant allografted in nu/nu mouse assessed as tumor growth inhibition at 25 mg/kg, ip administered daily for 11 days relative to control. Type of data set: functional. Particulars: 264 h, read-out: TGI.
In data set [18] the target is Mast/stem cell growth factor receptor Kit (Homo sapiens, UniProt P10721).
Chain of Mast/stem cell growth factor receptor Kit (P10721 whole entry): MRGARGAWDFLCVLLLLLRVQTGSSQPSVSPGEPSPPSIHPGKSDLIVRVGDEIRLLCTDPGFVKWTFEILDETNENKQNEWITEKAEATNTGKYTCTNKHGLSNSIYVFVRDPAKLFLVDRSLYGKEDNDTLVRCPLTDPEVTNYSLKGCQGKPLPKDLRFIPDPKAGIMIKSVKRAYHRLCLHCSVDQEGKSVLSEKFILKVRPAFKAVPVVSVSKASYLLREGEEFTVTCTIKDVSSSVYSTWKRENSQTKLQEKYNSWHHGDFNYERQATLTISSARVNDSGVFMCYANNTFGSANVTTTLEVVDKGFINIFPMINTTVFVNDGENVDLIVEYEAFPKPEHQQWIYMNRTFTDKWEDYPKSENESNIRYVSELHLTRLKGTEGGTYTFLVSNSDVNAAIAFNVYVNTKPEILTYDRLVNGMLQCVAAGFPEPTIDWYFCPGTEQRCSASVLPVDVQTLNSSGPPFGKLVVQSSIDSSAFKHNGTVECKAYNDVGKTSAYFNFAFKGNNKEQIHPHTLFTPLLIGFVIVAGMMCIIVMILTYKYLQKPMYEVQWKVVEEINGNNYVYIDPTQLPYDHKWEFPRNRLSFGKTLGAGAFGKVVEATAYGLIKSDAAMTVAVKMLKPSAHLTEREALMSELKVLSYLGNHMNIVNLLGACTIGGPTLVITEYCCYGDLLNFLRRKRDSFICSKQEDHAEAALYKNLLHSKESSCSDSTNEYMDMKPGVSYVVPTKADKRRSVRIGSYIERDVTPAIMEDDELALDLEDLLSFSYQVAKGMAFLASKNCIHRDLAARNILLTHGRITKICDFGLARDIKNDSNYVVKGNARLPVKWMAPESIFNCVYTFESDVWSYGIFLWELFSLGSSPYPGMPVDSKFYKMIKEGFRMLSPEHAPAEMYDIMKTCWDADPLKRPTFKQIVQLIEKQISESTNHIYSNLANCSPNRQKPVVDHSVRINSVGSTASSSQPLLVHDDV
Description: Inhibition of cKIT (unknown origin) using FAM-labeled peptide as substrate preincubated for 10 mins followed by substrate addition in presence of ATP by mobility shift assay
For data set [19], the system named is Mast/stem cell growth factor receptor Kit (Homo sapiens), P10721 [C674S].
Chain of Mast/stem cell growth factor receptor Kit (Homo sapiens), P10721 [C674S] (P10721 whole entry C674S): as the sequence (P10721 whole entry) above, with C674S counted along it
Description: Inhibition of TEL-fused cKIT C674S mutant (unknown origin) expressed in mouse BAF3 cells assessed as cell growth inhibition after 72 hrs by cell titer-glo assay
In data set [20] the test system is Mast/stem cell growth factor receptor Kit (Homo sapiens), P10721 [T670I].
Chain of Mast/stem cell growth factor receptor Kit (Homo sapiens), P10721 [T670I] (P10721 whole entry T670I): as the sequence (P10721 whole entry) above, with T670I counted along it
Description: Inhibition of TEL-fused cKIT T670I mutant (unknown origin) expressed in mouse BAF3 cells assessed as cell growth inhibition after 72 hrs by cell titer-glo assay
Data set [21] has as its target T1, Platelet-derived growth factor receptor alpha.
Description: Inhibition of TEL-fused PDGFRalpha (unknown origin) expressed in mouse BAF3 cells assessed as cell growth inhibition after 72 hrs by cell titer-glo assay
The subject of data set [22] is Mast/stem cell growth factor receptor Kit (Homo sapiens), P10721 [L576P].
Description: Inhibition of TEL-fused cKIT L576P mutant (unknown origin) expressed in mouse BAF3 cells assessed as cell growth inhibition after 72 hrs by cell titer-glo assay
In data set [23] the test system is Mast/stem cell growth factor receptor Kit (Homo sapiens), P10721 [N822K].
Chain of Mast/stem cell growth factor receptor Kit (Homo sapiens), P10721 [N822K] (P10721 whole entry N822K): as the sequence (P10721 whole entry) above, with N822K counted along it
Description: Inhibition of TEL-fused cKIT N822K mutant (unknown origin) expressed in mouse BAF3 cells assessed as cell growth inhibition after 72 hrs by cell titer-glo assay

T1 sequence (P16234 whole entry): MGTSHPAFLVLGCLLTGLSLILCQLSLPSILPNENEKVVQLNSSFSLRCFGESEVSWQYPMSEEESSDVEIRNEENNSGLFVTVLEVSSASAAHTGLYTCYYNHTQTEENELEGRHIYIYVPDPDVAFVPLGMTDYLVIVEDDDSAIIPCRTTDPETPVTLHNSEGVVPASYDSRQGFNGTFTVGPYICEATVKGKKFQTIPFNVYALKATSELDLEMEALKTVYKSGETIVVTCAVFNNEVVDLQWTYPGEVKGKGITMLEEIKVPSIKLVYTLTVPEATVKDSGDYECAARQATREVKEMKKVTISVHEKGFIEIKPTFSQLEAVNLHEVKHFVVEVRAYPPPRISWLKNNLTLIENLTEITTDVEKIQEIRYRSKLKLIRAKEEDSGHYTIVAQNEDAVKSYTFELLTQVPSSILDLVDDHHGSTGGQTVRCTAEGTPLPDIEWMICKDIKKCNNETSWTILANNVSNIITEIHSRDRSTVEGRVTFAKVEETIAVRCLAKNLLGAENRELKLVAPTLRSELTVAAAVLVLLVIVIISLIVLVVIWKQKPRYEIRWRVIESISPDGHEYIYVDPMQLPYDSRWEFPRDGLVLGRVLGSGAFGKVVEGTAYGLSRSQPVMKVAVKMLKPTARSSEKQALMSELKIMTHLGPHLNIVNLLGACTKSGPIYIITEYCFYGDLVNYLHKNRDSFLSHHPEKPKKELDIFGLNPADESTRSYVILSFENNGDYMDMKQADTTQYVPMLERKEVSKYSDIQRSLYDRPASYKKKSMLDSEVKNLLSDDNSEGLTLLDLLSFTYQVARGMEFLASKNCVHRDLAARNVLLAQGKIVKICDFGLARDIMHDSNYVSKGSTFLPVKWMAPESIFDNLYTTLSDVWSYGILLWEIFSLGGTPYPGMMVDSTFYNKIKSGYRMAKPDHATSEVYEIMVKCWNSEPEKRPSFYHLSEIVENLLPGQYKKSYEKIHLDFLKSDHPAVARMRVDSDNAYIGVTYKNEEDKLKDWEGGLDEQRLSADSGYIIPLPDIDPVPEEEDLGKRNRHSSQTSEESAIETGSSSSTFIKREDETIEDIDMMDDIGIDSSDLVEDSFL
Chain of Mast/stem cell growth factor receptor Kit (Homo sapiens), P10721 [L576P] (P10721 whole entry L576P): as the sequence (P10721 whole entry) above, with L576P counted along it

For the molecule `Cc1cc(NC(=O)Nc2ccc(-c3ccnc4[nH]nc(C)c34)cc2)ccc1N1CCOCC1`, the IC50 in data set [1] was determined as 7.2 nM; in [6], 159 nM; in data set [7], 72 nM; in [18] it was 2.4 nM. Further, the GI50 at 72 h is 4030 nM in data set [2], 7040 nM in data set [3] and > 10000 nM in data set [4]. Moreover, the GI50 with GISTT1 [5] is < 3 nM; in data set [19], 10.5 nM; in [20], 39.2 nM; in data set [21], 10.4 nM; in [22] it was 10.6 nM; in data set [23] it was 11.1 nM. In [8], the AUC(0-t) at 24 h was found to be 691 ng·h/mL. Further, the Tmax in data set [9] was found to be 4.98 min; in data set [10], 4 h. The AUC(0-inf) in data set [11] came out at 5390 ng·h/mL. In addition, the concentration in data set [12] peaked (Cmax) at 656 ng/mL. For the same molecule, the Activity in [13] is > 35%; in the data set with Mus musculus [16], “Non-Toxic”; in the data set on Mus musculus [17] it was “Non-Toxic”. In the data set with GISTT1 [14], the inhibition in vivo at 100 mg/kg turned out to be 81.5%. The figures for the inhibition in vivo at 25 mg/kg in the data set with GISTT1 [15] and in the data set on BaF3 were 20.2% and 16.8%, respectively.

Source of the values: ChEMBL document CHEMBL4011618, “Discovery of Potent, Selective Stem Cell Factor Receptor/Platelet Derived Growth Factor Receptor Alpha (c-KIT/PDGFRα) Dual Inhibitor for the Treatment of Imatinib-Resistant Gastrointestinal Stromal Tumors (GISTs)” (J Med Chem, 2017).
